Measured values from patent US12617831B2 (UNIVERSITE D'ANGERS, priority 2019, dated 2026).
Read-outs that look alike come from different tables or passages of the source.

Legend:
Murine MC3T3-E1 cells = assay: Collagen maturity assay in MC3T3-E1 cultures (Example 2); type: cell-based; conditions: compared with [D-Ala^2]GIP1-30NH2 and [Gly^2]GLP-2
Procedure: At confluence, the propagation medium was replaced by the differentiation medium containing αMEM supplemented with 5% FBS, 5% bovine calf serum, 100 U/mL penicillin, 100 μg/mL streptomycin, 50 μg/ml ascorbic acid and various concentrations of analogues. This day was considered as day 1. The differentiation medium was replenished every two days. […] Cultures were rinsed at least six times with milliQ water, fixed in absolute ethanol, scrapped off the culture dish and transferred onto BaF2 windows where they were air-dried. Integrity of the collagen extracellular matrix was verified by comparing the obtained Fourier transform infrared spectrum with those of commercial collagen. Spectral analysis was performed using a Bruker Vertex 70 spectrometer (Bruker optics, Ettlingen, Germany) interfaced with a Bruker Hyperion 3000 infrared microscope equipped with a standard single element Mercury Cadmium Telluride (MCT) detector. Infrared spectra were recorded at a resolution of 4 cm^−1, with an average of 32 scans in transmission mode. Background spectral images were collected under identical conditions from the same BaF2 windows at the beginning and end of each experiment to ensure instrument stability. At least 20 spectra were acquired for each condition and analyzed with a lab-made routine script in Matlab R2016b (The Mathworks, Natick, MA).

human GIPr = biological target: T1, human GIPr (Homo sapiens, UniProt P48546); assay: Cyclic AMP assay (FRET, H74 probe), HEK-293 transfected with human GIPr; type: cell-based; conditions: HEK 293 transfected only with human GIPr, 10^-9 M, 30 min (FIG. 16)
T1 construct: host or cells: HEK-293
T1 sequence (P48546 22-466): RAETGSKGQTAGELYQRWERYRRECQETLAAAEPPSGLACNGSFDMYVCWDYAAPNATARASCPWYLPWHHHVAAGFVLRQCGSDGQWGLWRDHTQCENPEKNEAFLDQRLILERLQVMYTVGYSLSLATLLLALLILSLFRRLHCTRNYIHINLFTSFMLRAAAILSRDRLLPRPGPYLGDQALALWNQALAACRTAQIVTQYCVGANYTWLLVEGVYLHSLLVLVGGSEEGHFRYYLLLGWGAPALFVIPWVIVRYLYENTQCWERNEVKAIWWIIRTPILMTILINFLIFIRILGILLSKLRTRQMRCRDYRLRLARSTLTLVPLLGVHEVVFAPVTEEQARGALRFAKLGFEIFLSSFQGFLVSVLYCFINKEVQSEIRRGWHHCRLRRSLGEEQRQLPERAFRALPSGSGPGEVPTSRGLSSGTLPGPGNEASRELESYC
Procedure: (§1) Human HEK-293 cells were plated at a density of 2×10^5 cells/cm^2 in 4 well microslides (ibidi GmbH, Martinsried, Germany). […] Jalink (Netherland Cancer Institute, Amsterdam, Netherland). […] The image acquisition was performed with a 63 X, 1.4 N.A. oil immersion objective and a Hybrid® detector (Leica) and images were collected after 30 minutes. Donor excitation was made with a 458 nm Ar laser, donor emission was collected between 460-505 nm and acceptor emission between 520-600 nm by setting the SP8 spectrometer accordingly. FRET was expressed as the ratio between donor and acceptor signals.

[1] = system: human GIPr and the human GLP-2r; assay: Cyclic AMP assay (FRET, H74 probe), HEK-293 co-transfected with human GIPr and human GLP-2r; type: cell-based; conditions: 10^-9 M
Procedure: as §1

Murine Raw 264.7 cells = type: cell-based; conditions: for IC50 computed from curve fitting of osteoclastogenesis vs. peptide concentration: Raw 264.7, RANKL 10 ng/ml, 110 h, * values determined from previous experiments
Procedure: Murine Raw 264.7 cells were grown and expanded in propagation medium containing Dulbecco's modified Eagle medium (DMEM-Gibco) supplemented with 10% fetal bovine serum (FBS-Lonza), 100 U/mL penicillin and 100 μg/mL streptomycin (Gibco) in a humidified atmosphere enriched with 5% CO2 at 37° C. The first passage after thawing Raw 264.7 cells was considered as passage 1. Cells were used up to passage 8. […] Cultures were rinsed three times in distilled water and the residual activity was inhibited by 4% NaF (Sigma-Aldrich) for 30 min. Cells were then rinsed in distilled water and allowed to dry. TRAcP positive cells, with more than three nuclei, were identified as osteoclasts. The number of newly generated osteoclasts was assessed using light microscopic examination by a histologist that was blinded to the treatment intervention. […] For each concentration of peptide, the mean, SD and number of events were computed.

[2] = system: ovariectomy-induced bone loss in mice; assay: Trabecular bone microarchitecture, fifth lumbar vertebra, ovariectomized mice; type: in vivo; conditions: OVX mice, L5, 25 nmoles/kg/day, vs vehicle
Procedure: At 16 weeks of age, ALZET osmotic pumps (model number 2006, Durect Corp., Cupertino, CA) filled with the below saline or peptide were implanted subcutaneously between the two scapula under general anesthesia in 32 mice. Successful filling of pumps was verified by weighting the pump before and after filling. At 20 weeks of age, ALZET osmotic pumps were replaced by similar pumps to ensure delivery for four new weeks. […] This dose and regimen of zoledronic acid was equivalent to the 5 mg infusion approved for the treatment of post-menopausal osteoporosis in humans. Analyses of vertebral bodies of the fifth lumbar vertebra (L5) were performed with a Nanotom nanotomograph (Phoenix, GE, USA) operated at 85 kV, 220 μA, 1000 ms integration time. The isotropic pixel size was fixed at 4 μm, the rotation step at 0.25° and exposure was done with a 0.1 mm copper filter. Each 3D reconstruction image dataset was binarized using global thresholding. Trabecular volume of interest was computerized on coronal sections of the L5 vertebral body. Trabecular VOI was spread over the entire vertebral body excluding the first and last 80 μm from the anterior and posterior cortical wall. All microCT/NanoCT parameters were determined according to guidelines and nomenclature proposed by the American Society for Bone and Mineral Research (Bouxsein et al., 2010).

Compound | potency versus native peptides, based on osteoclast formation in vitro and collagen maturity in vitro (Murine MC3T3-E1 cells) | intracellular levels of cAMP (human GIPr) | intracellular levels of cAMP ([1]; HEK 293 co-transfected with human GIPr and human GLP-2r, 30 min (FIG. 18)) | magnitude of cAMP rise versus native peptides ([1]; co-transfected HEK 293 cells) | IC50 computed from curve fitting of osteoclastogenesis vs. peptide concentration (Murine Raw 264.7 cells) [pM] | EC50 (Murine Raw 264.7 cells; Raw 264.7, * data obtained in previous experiments, read-out: EC50 of inhibitory effect on osteoclastogenesis) [nM] | reduction in trabecular spacing [2] [%] | EC50 (Murine Raw 264.7 cells) [nM]
CC[C@H](C)[C@H](NC(=O)[C@H](CO)NC(=O)[C@H](CCSC)NC(=O)[C@H](CC(=O)O)NC(=O)[C@H](CO)NC(=O)CNC(=O)[C@H](Cc1ccccc1)NC(=O)[C@H](CO)NC(=O)CNC(=O)[C@H](CCC(=O)O)NC(=O)CNC(=O)[C@@H](N)Cc1c[nH]cn1)C(=O)N[C@@H](C)C(=O)N[C@@H](CC(C)C)C(=O)N[C@@H](CC(=O)O)C(=O)N[C@@H](CCCCN)C(=O)N[C@@H](CC(C)C)C(=O)N[C@@H](C)C(=O)N[C@@H](C)C(=O)N[C@@H](CCCNC(=N)N)C(=O)N[C@@H](CC(=O)O)C(=O)N[C@@H](Cc1ccccc1)C(=O)N[C@H](C(=O)N[C@@H](CC(N)=O)C(=O)N[C@@H](Cc1c[nH]c2ccccc12)C(=O)N[C@@H](CC(C)C)C(=O)N[C@@H](CC(C)C)C(=O)N[C@@H](CCC(N)=O)C(=O)N[C@H](C(=O)N[C@@H](CCCCN)C(=O)N[C@H](C(=O)N[C@H](C(=O)N[C@@H](CC(=O)O)C(=O)O)[C@@H](C)O)[C@@H](C)CC)[C@@H](C)O)C(C)C [GL-0001] | better potency than each native peptide | increased intracellular levels of cAMP | increased intracellular levels of cAMP | greater with GL-0001 than with each native peptide | 14.2 | 0.0142 |  | 
CC[C@H](C)[C@H](NC(=O)[C@H](CO)NC(=O)[C@H](Cc1ccccc1)NC(=O)[C@H](CC(=O)O)NC(=O)[C@H](CO)NC(=O)CNC(=O)[C@H](Cc1ccccc1)NC(=O)[C@H](CO)NC(=O)CNC(=O)[C@H](CCC(=O)O)NC(=O)CNC(=O)[C@@H](N)Cc1c[nH]cn1)C(=O)N[C@@H](C)C(=O)N[C@@H](CC(C)C)C(=O)N[C@@H](CC(=O)O)C(=O)N[C@@H](CCCCN)C(=O)N[C@@H](CC(C)C)C(=O)N[C@@H](C)C(=O)N[C@@H](C)C(=O)N[C@@H](CCCNC(=N)N)C(=O)N[C@@H](CC(=O)O)C(=O)N[C@@H](Cc1ccccc1)C(=O)N[C@H](C(=O)N[C@@H](CC(N)=O)C(=O)N[C@@H](Cc1c[nH]c2ccccc12)C(=O)N[C@@H](CC(C)C)C(=O)N[C@@H](CC(C)C)C(=O)N[C@@H](CCC(N)=O)C(=O)N[C@H](C(=O)N[C@@H](CCCCN)C(N)=O)[C@@H](C)O)C(C)C [GL-0007] | better potency than each native peptide |  |  |  | 6.2 |  | 17 | 0.0062
